{"source": "the kinase profiling compilation of Christmann-Franck et al. (2016)", "assay_in_all_cases": "radiometric filter-binding kinase assay, Kinase HotSpot", "conditions_in_all_cases": "compound 0.5 µM; ATP 10 µM", "key": {"MAPK1 (human)": {"target": "MAPK1 (human) (UniProt P28482)", "sequence (P28482 whole entry, looked up)": "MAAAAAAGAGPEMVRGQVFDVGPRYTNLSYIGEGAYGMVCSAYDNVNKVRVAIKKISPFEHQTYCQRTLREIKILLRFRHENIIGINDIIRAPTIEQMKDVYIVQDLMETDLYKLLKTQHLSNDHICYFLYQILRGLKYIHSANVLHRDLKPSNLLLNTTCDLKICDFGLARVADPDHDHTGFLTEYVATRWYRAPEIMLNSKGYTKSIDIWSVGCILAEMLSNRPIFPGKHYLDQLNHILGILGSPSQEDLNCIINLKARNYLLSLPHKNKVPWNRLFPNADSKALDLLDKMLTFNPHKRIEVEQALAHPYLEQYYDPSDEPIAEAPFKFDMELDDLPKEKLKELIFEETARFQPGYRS"}, "DAPK1 (human)": {"target": "DAPK1 (human) (UniProt P53355)"}, "TLK2 (human)": {"target": "TLK2 (human) (UniProt Q86UE8)"}, "CAMK2A (human)": {"target": "CAMK2A (human) (UniProt Q9UQM7)"}, "CDK7 CCNH MNAT1 (human)": {"target": "CDK7 CCNH MNAT1 (human) (UniProt P50613+P51948+P51946)", "sequence (P50613 whole entry, looked up)": "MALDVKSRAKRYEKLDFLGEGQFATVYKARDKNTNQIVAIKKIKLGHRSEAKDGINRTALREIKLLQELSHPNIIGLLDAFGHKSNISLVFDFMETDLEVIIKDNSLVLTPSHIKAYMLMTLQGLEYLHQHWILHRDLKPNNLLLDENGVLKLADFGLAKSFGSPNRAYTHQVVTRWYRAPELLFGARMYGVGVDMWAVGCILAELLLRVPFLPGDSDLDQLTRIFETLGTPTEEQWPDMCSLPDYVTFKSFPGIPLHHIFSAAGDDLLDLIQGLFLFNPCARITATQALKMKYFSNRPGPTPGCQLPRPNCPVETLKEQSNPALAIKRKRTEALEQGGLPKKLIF", "sequence (P51946 whole entry, looked up)": "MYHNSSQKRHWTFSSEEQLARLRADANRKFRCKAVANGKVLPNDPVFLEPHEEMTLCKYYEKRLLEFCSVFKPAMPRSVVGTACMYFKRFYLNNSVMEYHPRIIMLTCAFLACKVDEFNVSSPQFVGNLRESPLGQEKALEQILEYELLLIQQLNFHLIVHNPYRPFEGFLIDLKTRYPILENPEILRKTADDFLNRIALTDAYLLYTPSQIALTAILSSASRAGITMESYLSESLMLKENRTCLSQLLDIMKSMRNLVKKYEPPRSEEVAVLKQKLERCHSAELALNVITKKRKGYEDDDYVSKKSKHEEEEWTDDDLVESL", "sequence (P51948 whole entry, looked up)": "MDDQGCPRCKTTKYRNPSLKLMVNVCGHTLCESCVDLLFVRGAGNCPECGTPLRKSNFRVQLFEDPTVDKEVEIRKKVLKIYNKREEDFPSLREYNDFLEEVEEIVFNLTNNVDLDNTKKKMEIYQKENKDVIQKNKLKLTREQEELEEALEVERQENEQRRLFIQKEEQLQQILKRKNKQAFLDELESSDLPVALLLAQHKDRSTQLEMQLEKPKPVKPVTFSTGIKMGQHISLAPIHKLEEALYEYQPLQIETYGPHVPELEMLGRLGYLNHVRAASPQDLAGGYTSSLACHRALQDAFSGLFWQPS"}, "MET (human)": {"target": "MET (human) (UniProt P08581)", "sequence (P08581 whole entry, looked up)": "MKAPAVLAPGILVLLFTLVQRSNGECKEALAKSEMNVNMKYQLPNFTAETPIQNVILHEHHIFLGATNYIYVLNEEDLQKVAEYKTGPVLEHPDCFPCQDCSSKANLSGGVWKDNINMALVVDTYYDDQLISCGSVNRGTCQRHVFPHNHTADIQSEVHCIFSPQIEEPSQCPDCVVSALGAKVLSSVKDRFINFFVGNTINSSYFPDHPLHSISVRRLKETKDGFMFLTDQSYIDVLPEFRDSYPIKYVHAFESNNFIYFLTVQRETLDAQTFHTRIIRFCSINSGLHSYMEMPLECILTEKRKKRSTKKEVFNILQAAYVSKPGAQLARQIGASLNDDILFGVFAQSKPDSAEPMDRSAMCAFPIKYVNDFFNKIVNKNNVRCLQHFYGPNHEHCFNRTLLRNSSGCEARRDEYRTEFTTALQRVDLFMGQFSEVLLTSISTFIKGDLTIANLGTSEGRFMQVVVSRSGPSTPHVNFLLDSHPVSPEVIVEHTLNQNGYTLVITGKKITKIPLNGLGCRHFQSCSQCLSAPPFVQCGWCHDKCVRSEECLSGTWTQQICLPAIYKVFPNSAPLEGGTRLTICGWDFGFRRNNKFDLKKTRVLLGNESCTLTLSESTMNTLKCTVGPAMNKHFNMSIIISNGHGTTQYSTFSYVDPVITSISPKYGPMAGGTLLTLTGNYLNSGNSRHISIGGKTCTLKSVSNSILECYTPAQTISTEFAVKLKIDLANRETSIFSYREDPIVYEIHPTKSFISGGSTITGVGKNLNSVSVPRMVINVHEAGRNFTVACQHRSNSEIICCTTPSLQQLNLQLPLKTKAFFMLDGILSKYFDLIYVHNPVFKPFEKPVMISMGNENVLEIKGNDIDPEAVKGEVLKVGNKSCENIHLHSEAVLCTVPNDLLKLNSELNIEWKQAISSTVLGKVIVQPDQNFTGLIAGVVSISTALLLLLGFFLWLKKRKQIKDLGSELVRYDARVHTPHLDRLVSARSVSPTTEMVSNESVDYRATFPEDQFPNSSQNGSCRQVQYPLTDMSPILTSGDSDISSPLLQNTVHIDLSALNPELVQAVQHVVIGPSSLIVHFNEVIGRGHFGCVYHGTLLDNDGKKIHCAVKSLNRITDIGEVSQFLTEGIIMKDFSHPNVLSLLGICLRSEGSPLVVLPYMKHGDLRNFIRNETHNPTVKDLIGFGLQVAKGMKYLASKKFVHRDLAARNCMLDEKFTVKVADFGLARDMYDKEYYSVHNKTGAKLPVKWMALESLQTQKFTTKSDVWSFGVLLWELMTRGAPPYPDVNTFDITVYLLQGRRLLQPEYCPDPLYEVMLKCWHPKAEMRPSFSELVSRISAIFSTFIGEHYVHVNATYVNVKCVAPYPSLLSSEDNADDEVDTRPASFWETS"}, "TAOK2 (human)": {"target": "TAOK2 (human) (UniProt Q9UL54)"}, "PRKCB1 (human)": {"target": "PRKCB1 (human) (UniProt P05771)"}, "CDK4 CCND1 (human)": {"target": "CDK4 CCND1 (human) (UniProt P24385+P11802)"}, "MINK1 (human)": {"target": "MINK1 (human) (UniProt Q8N4C8)", "sequence (Q8N4C8 whole entry, looked up)": "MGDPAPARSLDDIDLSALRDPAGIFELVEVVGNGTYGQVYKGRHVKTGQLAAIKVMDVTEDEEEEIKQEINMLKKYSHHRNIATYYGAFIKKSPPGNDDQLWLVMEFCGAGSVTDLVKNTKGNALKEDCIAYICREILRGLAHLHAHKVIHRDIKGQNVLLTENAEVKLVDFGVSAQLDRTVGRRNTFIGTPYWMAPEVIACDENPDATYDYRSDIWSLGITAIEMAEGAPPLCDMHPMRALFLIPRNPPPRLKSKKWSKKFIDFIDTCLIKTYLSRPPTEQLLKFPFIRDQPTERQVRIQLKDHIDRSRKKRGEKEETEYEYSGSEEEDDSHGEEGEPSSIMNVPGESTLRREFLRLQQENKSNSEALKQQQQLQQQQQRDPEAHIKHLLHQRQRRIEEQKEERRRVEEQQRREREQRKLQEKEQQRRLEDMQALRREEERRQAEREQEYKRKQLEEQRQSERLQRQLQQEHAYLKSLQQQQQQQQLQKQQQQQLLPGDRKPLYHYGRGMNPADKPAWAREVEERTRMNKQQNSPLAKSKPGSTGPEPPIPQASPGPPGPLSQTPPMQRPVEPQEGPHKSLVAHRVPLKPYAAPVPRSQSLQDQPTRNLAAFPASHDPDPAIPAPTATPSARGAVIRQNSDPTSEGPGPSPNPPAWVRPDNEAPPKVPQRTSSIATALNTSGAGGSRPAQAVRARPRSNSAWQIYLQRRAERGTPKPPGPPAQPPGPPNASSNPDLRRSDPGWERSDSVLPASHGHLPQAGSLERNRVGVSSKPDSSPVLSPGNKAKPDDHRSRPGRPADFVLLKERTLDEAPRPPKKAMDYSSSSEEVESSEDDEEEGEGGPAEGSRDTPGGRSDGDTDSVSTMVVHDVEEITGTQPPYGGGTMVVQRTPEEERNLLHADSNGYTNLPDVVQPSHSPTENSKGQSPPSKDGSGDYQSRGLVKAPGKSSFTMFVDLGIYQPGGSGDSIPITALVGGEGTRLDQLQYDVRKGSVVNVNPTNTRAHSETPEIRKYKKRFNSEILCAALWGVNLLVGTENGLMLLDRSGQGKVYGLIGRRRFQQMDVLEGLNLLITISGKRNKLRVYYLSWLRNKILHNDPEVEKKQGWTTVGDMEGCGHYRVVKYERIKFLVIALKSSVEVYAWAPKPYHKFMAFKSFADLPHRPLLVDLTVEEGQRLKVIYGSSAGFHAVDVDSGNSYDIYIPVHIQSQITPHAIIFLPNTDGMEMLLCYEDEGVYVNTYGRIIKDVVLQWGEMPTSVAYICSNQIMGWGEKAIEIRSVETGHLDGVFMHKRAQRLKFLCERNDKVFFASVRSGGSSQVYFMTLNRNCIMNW"}, "RIPK2 (human)": {"target": "RIPK2 (human) (UniProt O43353)"}, "ROCK1 (human)": {"target": "ROCK1 (human) (UniProt Q13464)"}, "ROS1 (human)": {"target": "ROS1 (human) (UniProt P08922)"}, "MAP3K7 TAB1 (human)": {"target": "MAP3K7 TAB1 (human) (UniProt O43318+Q15750)"}, "RPS6KA4 KD2 (human)": {"target": "RPS6KA4 KD2 (human) (UniProt O75676)"}, "AKT3 (human)": {"target": "AKT3 (human) (UniProt Q9Y243)"}, "EPHB2 (human)": {"target": "EPHB2 (human) (UniProt P29323)"}, "CSF1R (human)": {"target": "CSF1R (human) (UniProt P07333)"}, "NTRK3 (human)": {"target": "NTRK3 (human) (UniProt Q16288)"}, "HIPK3 (human)": {"target": "HIPK3 (human) (UniProt Q9H422)"}, "MAP3K14 (human)": {"target": "MAP3K14 (human) (UniProt Q99558)"}, "ABL2 (human)": {"target": "ABL2 (human) (UniProt P42684)"}, "SRC (human)": {"target": "SRC (human) (UniProt P12931)"}, "GSK3B (human)": {"target": "GSK3B (human) (UniProt P49841)"}, "MARK2 (human)": {"target": "MARK2 (human) (UniProt Q7KZI7)"}, "GSG2 (human)": {"target": "GSG2 (human) (UniProt Q8TF76)"}, "NEK9 (human)": {"target": "NEK9 (human) (UniProt Q8TD19)"}, "CDK5 CDK5R1 p35 (human)": {"target": "CDK5 CDK5R1 p35 (human) (UniProt Q00535+Q15078)"}, "NEK4 (human)": {"target": "NEK4 (human) (UniProt P51957)"}, "MAP3K11 (human)": {"target": "MAP3K11 (human) (UniProt Q16584)"}, "VRK1 (human)": {"target": "VRK1 (human) (UniProt Q99986)"}, "EPHB4 (human)": {"target": "EPHB4 (human) (UniProt P54760)"}, "CLK3 (human)": {"target": "CLK3 (human) (UniProt P49761)"}, "RPS6KA5 KD2 (human)": {"target": "RPS6KA5 KD2 (human) (UniProt O75582)"}, "MUSK (human)": {"target": "MUSK (human) (UniProt O15146)"}, "CDK9 CCNT1 (human)": {"target": "CDK9 CCNT1 (human) (UniProt P50750+O60563)"}, "ALK (human)": {"target": "ALK (human) (UniProt Q9UM73)"}, "PRKD3 (human)": {"target": "PRKD3 (human) (UniProt O94806)"}, "MAPK8 (human)": {"target": "MAPK8 (human) (UniProt P45983)"}, "MLTK (human)": {"target": "MLTK (human) (UniProt Q9NYL2)"}, "EPHA7 (human)": {"target": "EPHA7 (human) (UniProt Q15375)", "sequence (Q15375 whole entry, looked up)": "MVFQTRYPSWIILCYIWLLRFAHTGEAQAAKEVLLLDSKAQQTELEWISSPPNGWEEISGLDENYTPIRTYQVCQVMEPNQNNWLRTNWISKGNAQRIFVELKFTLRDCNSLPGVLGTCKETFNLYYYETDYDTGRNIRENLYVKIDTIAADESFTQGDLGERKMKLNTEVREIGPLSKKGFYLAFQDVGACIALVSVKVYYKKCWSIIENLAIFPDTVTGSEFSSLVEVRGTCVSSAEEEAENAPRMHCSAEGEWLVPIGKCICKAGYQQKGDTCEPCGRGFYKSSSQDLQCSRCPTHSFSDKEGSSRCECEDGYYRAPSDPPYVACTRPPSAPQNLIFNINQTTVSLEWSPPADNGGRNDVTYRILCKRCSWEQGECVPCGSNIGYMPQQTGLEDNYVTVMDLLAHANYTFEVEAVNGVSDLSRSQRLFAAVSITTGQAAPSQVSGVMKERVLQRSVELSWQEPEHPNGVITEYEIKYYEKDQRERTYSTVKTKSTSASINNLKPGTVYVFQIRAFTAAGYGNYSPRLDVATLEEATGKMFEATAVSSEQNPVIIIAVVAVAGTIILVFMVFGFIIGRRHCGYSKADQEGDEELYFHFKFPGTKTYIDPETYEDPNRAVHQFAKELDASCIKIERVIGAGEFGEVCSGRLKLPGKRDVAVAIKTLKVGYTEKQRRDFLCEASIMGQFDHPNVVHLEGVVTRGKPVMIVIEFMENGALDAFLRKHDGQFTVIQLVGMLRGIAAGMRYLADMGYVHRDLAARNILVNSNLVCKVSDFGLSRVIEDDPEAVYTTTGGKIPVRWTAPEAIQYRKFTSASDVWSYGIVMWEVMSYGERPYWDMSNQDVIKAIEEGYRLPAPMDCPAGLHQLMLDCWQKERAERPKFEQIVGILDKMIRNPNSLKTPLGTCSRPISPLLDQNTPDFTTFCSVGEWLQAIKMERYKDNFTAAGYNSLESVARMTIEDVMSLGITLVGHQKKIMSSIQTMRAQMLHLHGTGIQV"}}}
{"compound": "N#C/C(=C(/N)Sc1ccc(N)cc1)c1ccccc1C(F)(F)F", "values": [{"measurement": "residual activity", "setting": "MAPK1 (human)", "result": 86, "unit": "%"}, {"measurement": "residual activity", "setting": "DAPK1 (human)", "result": 104, "unit": "%"}, {"measurement": "residual activity", "setting": "TLK2 (human)", "result": 92.5, "unit": "%"}, {"measurement": "residual activity", "setting": "CAMK2A (human)", "result": 111, "unit": "%"}, {"measurement": "residual activity", "setting": "CDK7 CCNH MNAT1 (human)", "result": 100, "unit": "%"}, {"measurement": "residual activity", "setting": "MET (human)", "result": 77.2, "unit": "%"}, {"measurement": "residual activity", "setting": "TAOK2 (human)", "result": 101, "unit": "%"}, {"measurement": "residual activity", "setting": "PRKCB1 (human)", "result": 93.1, "unit": "%"}, {"measurement": "residual activity", "setting": "CDK4 CCND1 (human)", "result": 106, "unit": "%"}, {"measurement": "residual activity", "setting": "MINK1 (human)", "result": 104, "unit": "%"}, {"measurement": "residual activity", "setting": "RIPK2 (human)", "result": 91, "unit": "%"}, {"measurement": "residual activity", "setting": "ROCK1 (human)", "result": 104, "unit": "%"}, {"measurement": "residual activity", "setting": "ROS1 (human)", "result": 94.4, "unit": "%"}, {"measurement": "residual activity", "setting": "MAP3K7 TAB1 (human)", "result": 93.5, "unit": "%"}, {"measurement": "residual activity", "setting": "RPS6KA4 KD2 (human)", "result": 112, "unit": "%"}, {"measurement": "residual activity", "setting": "AKT3 (human)", "result": 96.2, "unit": "%"}, {"measurement": "residual activity", "setting": "EPHB2 (human)", "result": 101, "unit": "%"}, {"measurement": "residual activity", "setting": "CSF1R (human)", "result": 101, "unit": "%"}, {"measurement": "residual activity", "setting": "NTRK3 (human)", "result": 101, "unit": "%"}, {"measurement": "residual activity", "setting": "HIPK3 (human)", "result": 114, "unit": "%"}, {"measurement": "residual activity", "setting": "MAP3K14 (human)", "result": 111, "unit": "%"}, {"measurement": "residual activity", "setting": "ABL2 (human)", "result": 101, "unit": "%"}, {"measurement": "residual activity", "setting": "SRC (human)", "result": 94.1, "unit": "%"}, {"measurement": "residual activity", "setting": "GSK3B (human)", "result": 102, "unit": "%"}, {"measurement": "residual activity", "setting": "MARK2 (human)", "result": 124, "unit": "%"}, {"measurement": "residual activity", "setting": "GSG2 (human)", "result": 99.9, "unit": "%"}, {"measurement": "residual activity", "setting": "NEK9 (human)", "result": 99.2, "unit": "%"}, {"measurement": "residual activity", "setting": "CDK5 CDK5R1 p35 (human)", "result": 103, "unit": "%"}, {"measurement": "residual activity", "setting": "NEK4 (human)", "result": 95.9, "unit": "%"}, {"measurement": "residual activity", "setting": "MAP3K11 (human)", "result": 99.9, "unit": "%"}, {"measurement": "residual activity", "setting": "VRK1 (human)", "result": 100, "unit": "%"}, {"measurement": "residual activity", "setting": "EPHB4 (human)", "result": 102, "unit": "%"}, {"measurement": "residual activity", "setting": "CLK3 (human)", "result": 103, "unit": "%"}, {"measurement": "residual activity", "setting": "RPS6KA5 KD2 (human)", "result": 97.9, "unit": "%"}, {"measurement": "residual activity", "setting": "MUSK (human)", "result": 91.9, "unit": "%"}, {"measurement": "residual activity", "setting": "CDK9 CCNT1 (human)", "result": 97.7, "unit": "%"}, {"measurement": "residual activity", "setting": "ALK (human)", "result": 100, "unit": "%"}, {"measurement": "residual activity", "setting": "PRKD3 (human)", "result": 96.8, "unit": "%"}, {"measurement": "residual activity", "setting": "MAPK8 (human)", "result": 112, "unit": "%"}, {"measurement": "residual activity", "setting": "MLTK (human)", "result": 105, "unit": "%"}, {"measurement": "residual activity", "setting": "EPHA7 (human)", "result": 105, "unit": "%"}]}
{"compound": "O=C1Nc2ccc(Cl)cc2/C1=C/c1cc(Cl)c(O)c(Cl)c1", "values": [{"measurement": "residual activity", "setting": "MAPK1 (human)", "result": 84.3, "unit": "%"}, {"measurement": "residual activity", "setting": "DAPK1 (human)", "result": 90, "unit": "%"}, {"measurement": "residual activity", "setting": "TLK2 (human)", "result": 105, "unit": "%"}, {"measurement": "residual activity", "setting": "CAMK2A (human)", "result": 92.9, "unit": "%"}, {"measurement": "residual activity", "setting": "CDK7 CCNH MNAT1 (human)", "result": 96.7, "unit": "%"}, {"measurement": "residual activity", "setting": "MET (human)", "result": 96.4, "unit": "%"}, {"measurement": "residual activity", "setting": "TAOK2 (human)", "result": 81.3, "unit": "%"}, {"measurement": "residual activity", "setting": "PRKCB1 (human)", "result": 97.3, "unit": "%"}, {"measurement": "residual activity", "setting": "CDK4 CCND1 (human)", "result": 94.7, "unit": "%"}, {"measurement": "residual activity", "setting": "MINK1 (human)", "result": 22.4, "unit": "%"}, {"measurement": "residual activity", "setting": "RIPK2 (human)", "result": 50.2, "unit": "%"}, {"measurement": "residual activity", "setting": "ROCK1 (human)", "result": 93.2, "unit": "%"}, {"measurement": "residual activity", "setting": "ROS1 (human)", "result": 89.7, "unit": "%"}, {"measurement": "residual activity", "setting": "MAP3K7 TAB1 (human)", "result": 86.8, "unit": "%"}, {"measurement": "residual activity", "setting": "RPS6KA4 KD2 (human)", "result": 98, "unit": "%"}, {"measurement": "residual activity", "setting": "AKT3 (human)", "result": 96.9, "unit": "%"}, {"measurement": "residual activity", "setting": "EPHB2 (human)", "result": 90.9, "unit": "%"}, {"measurement": "residual activity", "setting": "CSF1R (human)", "result": 77.9, "unit": "%"}, {"measurement": "residual activity", "setting": "NTRK3 (human)", "result": 44.8, "unit": "%"}, {"measurement": "residual activity", "setting": "HIPK3 (human)", "result": 91.5, "unit": "%"}, {"measurement": "residual activity", "setting": "MAP3K14 (human)", "result": 111, "unit": "%"}, {"measurement": "residual activity", "setting": "ABL2 (human)", "result": 80.4, "unit": "%"}, {"measurement": "residual activity", "setting": "SRC (human)", "result": 96.2, "unit": "%"}, {"measurement": "residual activity", "setting": "GSK3B (human)", "result": 80.8, "unit": "%"}, {"measurement": "residual activity", "setting": "MARK2 (human)", "result": 79.7, "unit": "%"}, {"measurement": "residual activity", "setting": "GSG2 (human)", "result": 8.65, "unit": "%"}, {"measurement": "residual activity", "setting": "NEK9 (human)", "result": 103, "unit": "%"}, {"measurement": "residual activity", "setting": "CDK5 CDK5R1 p35 (human)", "result": 94.5, "unit": "%"}, {"measurement": "residual activity", "setting": "NEK4 (human)", "result": 88.2, "unit": "%"}, {"measurement": "residual activity", "setting": "MAP3K11 (human)", "result": 60.4, "unit": "%"}, {"measurement": "residual activity", "setting": "VRK1 (human)", "result": 80.6, "unit": "%"}, {"measurement": "residual activity", "setting": "EPHB4 (human)", "result": 100, "unit": "%"}, {"measurement": "residual activity", "setting": "CLK3 (human)", "result": 90.9, "unit": "%"}, {"measurement": "residual activity", "setting": "RPS6KA5 KD2 (human)", "result": 86.1, "unit": "%"}, {"measurement": "residual activity", "setting": "MUSK (human)", "result": 65.5, "unit": "%"}, {"measurement": "residual activity", "setting": "CDK9 CCNT1 (human)", "result": 95.2, "unit": "%"}, {"measurement": "residual activity", "setting": "ALK (human)", "result": 65.8, "unit": "%"}, {"measurement": "residual activity", "setting": "PRKD3 (human)", "result": 80.7, "unit": "%"}, {"measurement": "residual activity", "setting": "MAPK8 (human)", "result": 82.8, "unit": "%"}, {"measurement": "residual activity", "setting": "MLTK (human)", "result": 77.4, "unit": "%"}, {"measurement": "residual activity", "setting": "EPHA7 (human)", "result": 97.5, "unit": "%"}]}
